According to PMC8772380, “Structural and Biochemical Investigation of Class I Ribonucleotide Reductase from the Hyperthermophile Aquifex aeolicus” (Biochemistry, 2021):
Each block holds one molecule with its values, some of them ahead of it.

T1: A. aeolicus RNR (AaR1 + AaR2) (Aquifex aeolicus, UniProt O66503)
T1 construct: gene nrdA; full length AaR1 and AaR2 (construct lacking the 346-residue intein, equal to mature R2; natural precursor contains the intein), N-terminal His tags with thrombin site, E. coli expression; R2 42 kDa; with Ribonucleoside-diphosphate reductase subunit beta
T1 sequence (O66503 1-801): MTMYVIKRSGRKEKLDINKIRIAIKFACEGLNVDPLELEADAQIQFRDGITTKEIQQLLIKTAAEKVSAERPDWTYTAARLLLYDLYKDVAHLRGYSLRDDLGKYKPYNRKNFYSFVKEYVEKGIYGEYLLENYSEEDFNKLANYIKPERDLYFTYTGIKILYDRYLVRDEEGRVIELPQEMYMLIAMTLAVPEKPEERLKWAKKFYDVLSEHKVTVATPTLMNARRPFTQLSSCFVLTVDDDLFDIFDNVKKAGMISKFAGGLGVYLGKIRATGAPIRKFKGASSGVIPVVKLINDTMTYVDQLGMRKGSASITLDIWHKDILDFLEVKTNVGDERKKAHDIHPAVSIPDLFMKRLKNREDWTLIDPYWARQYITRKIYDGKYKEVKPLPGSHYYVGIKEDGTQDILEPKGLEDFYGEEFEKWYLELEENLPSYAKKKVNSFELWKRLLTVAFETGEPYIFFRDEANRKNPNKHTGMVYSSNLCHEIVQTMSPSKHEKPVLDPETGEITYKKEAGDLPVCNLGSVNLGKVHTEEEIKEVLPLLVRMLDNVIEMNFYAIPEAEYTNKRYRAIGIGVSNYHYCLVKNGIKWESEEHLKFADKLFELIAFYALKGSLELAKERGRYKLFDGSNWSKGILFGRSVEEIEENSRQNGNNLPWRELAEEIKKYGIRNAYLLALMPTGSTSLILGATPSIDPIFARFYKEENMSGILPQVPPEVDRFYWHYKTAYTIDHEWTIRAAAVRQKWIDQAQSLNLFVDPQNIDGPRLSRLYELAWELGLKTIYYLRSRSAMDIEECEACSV
T1 sequence (O67475 1-229 partner): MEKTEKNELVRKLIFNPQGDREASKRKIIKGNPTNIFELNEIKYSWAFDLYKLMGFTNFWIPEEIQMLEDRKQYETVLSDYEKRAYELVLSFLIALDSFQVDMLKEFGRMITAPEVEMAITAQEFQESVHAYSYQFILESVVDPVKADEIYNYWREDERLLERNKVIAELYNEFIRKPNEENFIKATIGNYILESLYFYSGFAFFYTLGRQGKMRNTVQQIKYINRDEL
T1 sequence (O67475 576-696 partner): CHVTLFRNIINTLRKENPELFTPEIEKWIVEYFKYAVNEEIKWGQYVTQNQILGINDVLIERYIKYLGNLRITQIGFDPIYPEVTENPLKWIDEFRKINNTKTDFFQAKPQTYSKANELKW

T2: AaR1 (Aquifex aeolicus, UniProt O66503)
T2 construct: gene nrdA; full length, N-terminal His tag and thrombin site (pET-28a), expressed in E. coli BL21(DE3); 93 kDa; monomer-dimer equilibrium
T2 sequence (O66503 1-801): T1 sequence (O66503 1-801)

B1: Aquifex aeolicus ribonucleotide reductase R2 protein (β-subunit), from a construct lacking the intein (enzyme, UniProt O67475 1-229, looked up)
chain: MEKTEKNELVRKLIFNPQGDREASKRKIIKGNPTNIFELNEIKYSWAFDLYKLMGFTNFWIPEEIQMLEDRKQYETVLSDYEKRAYELVLSFLIALDSFQVDMLKEFGRMITAPEVEMAITAQEFQESVHAYSYQFILESVVDPVKADEIYNYWREDERLLERNKVIAELYNEFIRKPNEENFIKATIGNYILESLYFYSGFAFFYTLGRQGKMRNTVQQIKYINRDELCHVTLFRNIINTLRKENPELFTPEIEKWIVEYFKYAVNEEIKWGQYVTQNQILGINDVLIERYIKYLGNLRITQIGFDPIYPEVTENPLKWIDEFRKINNTKTDFFQAKPQTYSKANELKW
notes: Class I ribonucleotide reductase small (β) subunit R2, Aquifex aeolicus; Leu229 is joined to Cys230; The natural gene product carries the intein between Leu229 and Cys230; Theoretical mass of the polypeptide 42 kDa. numbers count on: the mature protein (intein removed); Homodimer in the crystal, GEMMA and SEC; No removal of the His tag is described; also called AaR2; mature AaR2; source: E. coli …
B2: Aquifex aeolicus ribonucleotide reductase R1 protein (α-subunit) (enzyme, UniProt O66503 1-801, looked up)
chain: T1 sequence (O66503 1-801)
notes: Class I ribonucleotide reductase large (α) subunit R1, NrdAh subclass, Aquifex aeolicus; full length, synthetic gene (Genscript) in pET-28a(+) with N-terminal His tag and thrombin cleavage site; theoretical mass of the polypeptide 93 kDa; Homodimer in the crystal; monomer-dimer equilibrium in GEMMA and SEC; No removal of the His tag by thrombin is described; also called AaR1; NrdAh; source: E. …

Key:
[1] = target: T1, A. aeolicus RNR (AaR1 + AaR2); assay: HPLC NDP reduction assay; format: biochemical; conditions: pH 6.8, 79 °C
AaR1 = target: T2, AaR1; assay: GEMMA, effector-induced R1 dimerization; format: binding; conditions: allosteric; 100 µM dATP, equimolar Mg acetate, 300 mM ammonium acetate pH 7.5, preincubated at 78 °C
[2] = target: the molecule itself; assay: GEMMA (gas-phase electrophoretic mobility macromolecule analysis); individual R1 or R2 at 0.25 μM, 300 mM ammonium acetate pH 7.5, 0.005% Tween 20, without or with 300 μM ATP or 100 μM dATP (equimolar magnesium acetate); preincubated 2 min at 78 °C, analysed at room temperature
[3] = target: B2; assay: SEC; equimolar AaR1 and AaR2, 20 μM, with ATP and MgCl2; Superdex 200 PC 3.2/30, 20 mM Hepes pH 7.4, 75 mM NaCl, 0.2 mM TCEP; preincubated 5 min at 70 °C, run at 7 °C; top peak fraction analysed by SDS-PAGE; conditions: both partners purified

HPLC NDP reduction assay ([1]; allosteric activator, 2 mM ATP, four substrates 0.5 mM each, 10 mM DTT, 10 mM Mg acetate, titration with CDP in Figure S3): ATP induces the reduction of CDP and UDP
Molecule: Nc1ncnc2c1ncn2[C@@H]1O[C@H](COP(=O)(O)OP(=O)(O)OP(=O)(O)O)[C@@H](O)[C@H]1O [ATP]

Molecule: Nc1nc2c(ncn2[C@@H]2O[C@H](COP(=O)(O)OP(=O)(O)O)[C@@H](O)[C@H]2O)c(=O)[nH]1 [GDP]
HPLC NDP reduction assay ([1]; 0.5 mM GDP with CDP, ADP and UDP, dTTP effector 2 mM, 10 mM DTT): specific activities for the conversion of CDP, UDP, GDP, and ADP to their corresponding dNDPs

Molecule: Nc1ncnc2c1ncn2[C@H]1C[C@H](O)[C@@H](COP(=O)(O)OP(=O)(O)OP(=O)(O)O)O1 [dATP]
GEMMA, effector-induced R1 dimerization (AaR1): Allosteric effectors stimulated R1 dimerization, although complete conversion to dimers was not obtained

Molecule: Nc1nc2c(ncn2[C@H]2C[C@H](O)[C@@H](COP(=O)(O)OP(=O)(O)OP(=O)(O)O)O2)c(=O)[nH]1 [dGTP]
HPLC NDP reduction assay ([1]; allosteric effector, s-site, induces ADP reduction, 2 mM dGTP, four substrates 0.5 mM each): dTTP and dGTP induce the reduction of GDP and ADP, respectively

Molecule: B1
stoichiometry N [2]: 2
stoichiometry N [3]: 1 AaR1:AaR2

Molecule: B2
stoichiometry N [2]: 2
